Test results as given in patent publication US20150297761A1, “PEPTIDIC STRUCTURES INCORPORATING AN AMINO ACID METAL COMPLEX AND APPLICATIONS IN MAGNETIC RESONANCE IMAGING” (THE GENERAL HOSPITAL CORPORATION, priority 2012, published 2015).
Like-named read-outs stand apart in the source and are kept apart here. Values belong to the compound of their own block, whether it stands above or below them.

Legend:
[1] = buffer, pH 3
Method: For comparison, we also measured transchelation from the approved contrast agents [Gd(HP-DO3A)(H2O)] (ProHance, gadoteridol) and [Gd(DTPA)(H2O)]^2− (Magnevist, gadopentetate). […] We estimated half-times for these transchelations (time to 50% of the equilibrium value).
Stock solutions of MS-325-L and GdL1, Gd2L2 and Gd3L3 were prepared in 50 mM citrate buffer at pH 3.0. MS-325-L was added to solutions of the Gd complexes and incubated at 37° C. The final concentrations of the metal complexes were 0.1 mM, while the concentration of MS-325-L was adjusted according to the amounts of Gd complexes per metallopeptide present. A 10 μL aliquot was removed for HPLC analysis and analyzed while the remainder of the solution was incubated at 37° C.

[2] = hydration state; literature (superscript refs); cited from earlier work
[3] = Relaxometry of [Gd(CyPic3A)(H2O)2]− in different media; assay type: physicochemical
Method: The relaxivity of [Gd(CyPic3A)(H2O)2]^− is consistent with two inner-sphere water ligands. At 310 K in pH 7.4 50 mM HEPES buffer, r1=5.70 mM^−1 s^−1 at 1.41 T (7.53 mM^−1s^−1 at 298 K). This is 75% higher than [Gd(DTPA)(H2O)]^2− measured under these conditions (see below for detailed table of r1 values). To probe the effects of potentially coordinating anions, nwas measured in the presence of 20 equiv. carbonate or L-lactate and also in 25 mM phosphate buffer (pH 7.4).
Relaxivity measurements were performed on a Bruker mq60 or Bruker mq20 Minispec at 1.41 T and 0.47 T, respectively, and 37° C. Longitudinal (T1) relaxation was acquired via an inversion recovery experiment on 10 inversions of duration ranging between 0.05×T1 and 5×T1. Relaxivity (r1) was determined from the slope of a plot of 1/T1 vs. [Gd] for at least 4 concentrations of Gd(III). The transverse (T2) relaxation times of ^17O were acquired at 500 MHz using a CPMG pulse sequence at temperatures ranging from 278 to 368 K. Reduced relaxation rates (1/T2r) were calculated by dividing the [Gd(CyPic3A)(H2O)2]^− imparted increase in 1/T2 relative to neat H2O at pH 3 by the mole fraction of coordinated water molecules.

[4] = Kinetic inertness: Zn(II) transmetallation in phosphate buffer, followed by 1/T1; assay type: physicochemical
Description: Kinetic inertness was also taken into account in the evaluation of potential probes. In this regard, [Gd(CyPic3A)(H2O)2]^− was challenged with 1 equiv. [ZnPO4]^− as a slurry in pH 7.0 phosphate buffer at 310 K (see below). Several clinically utilized Gd(III) complexes have been benchmarked relative to one another in this manner.^37 As Gd(III) replaced by Zn(II) precipitates from the solution as GdPO4, the relaxation rate 1/T1 decreases. In this method, the time required to reach 80% of the initial 1/T1 value was utilized as an index of kinetic inertness.
Modified conditions of Muller and co-workers were used for this experiment.^11,12 Solutions containing 2.5 mM [Gd(CyPic3A)(H2O)2]^− and 2.5 mM Zn(OTf)2 were combined in pH 7.0 phosphate buffer (50 mM) and placed in an incubator shaker set to 310 K. Progress of the transchelation was monitored via the decrease in 1/T1 with time. Prior to measurement, aliquots were placed in small glass inserts and centrifuged to bring all insoluble material to the bottom so as not to interfere with the measurement.

[5] = cited from earlier work
[6] = Ligand challenge, equilibrium constant Kcomp of [Gd(DTPA)(H2O)]2− vs. L; assay type: physicochemical; details: obtained through ligand challenge
[7] = as above; assay type: physicochemical; details: pH 7.4
Method: As a means of assessing thermodynamic stability relative to other Gd(III)-complexes, [Gd(CyPic3A)(H2O)2]^− was challenged with DTPA in pH 7.4 25 mM Tris buffer. […] From this information it was possible to deduce equilibrium constants (Kcomp) for the competition reaction described in Equation 5,^31 where L=DTPA and L′=challenging chelator.
(§1) Equilibration of each solution was monitored by LC-MS. Relative distributions of [Gd(CyPic3A)(H2O)2]^− and CyPic3A were determined by integrating the corresponding absorbance traces at 280 nm. […] Kcomp values determined between [Gd(DTPA)(H2O)]^2− and various ligands were determined from conditional formation constants (Kcond)^4 values taken from the literature.^6-16 Direct comparisons were only made between Kcond values determined under identical conditions.

[8] = Ligand challenge, equilibrium constant Kcomp of MS-325 vs. L; assay type: physicochemical; details: obtained through ligand challenge
Method: as §1

[9] = Relaxivity of Gd(DOTAla) metallopeptides and reference agents (T1 inversion recovery, 37° C.); assay type: physicochemical
Method: Main numbers are given per Gd, numbers in parentheses are per molecule values. All numbers were determined at 37° C. using an inversion recovery sequence at concentrations ranging from 0.05 to 0.6 mM/Gd. Table 4 in Example 2 further expands the data of Table 1.
Per Gd relaxivities were determined by measuring T1 at 37° C. using 20, 60, 200, 400 and 500 MHz spectrometers. Relaxivities for MS-325 (with and without the presence of HSA) as a reference compound with a long τR and [Gd(HP-DO3A)(H2O)] as a reference for very short τR were also measured, and all the relaxivity data is tabulated in Table 4, together with results obtained from literature for the compounds with similar estimated τR. […] Additional rigidity through cyclization seems to provide only minor relaxivity increase for the dimeric and trimeric systems (Gd2C2 and Gd3C3).
Measurement of relaxivity. Longitudinal relaxation times T1, were measured on Bruker Minispecs mq20 (0.47 T) and mq60 (1.41 T), a Bruker Bioscan horizontal bore 4.7 T, 9.4 T and 11.7 T Varian NMR spectrometers. T1 was measured by using an inversion recovery method with 10 inversion time values ranging from 0.05×T1 to 5×T1. Relaxivity was calculated from a linear plot of 3 or 4 different concentrations (ranging from 0.01 to 0.5 mM, depending on amount of compound isolated) versus the corresponding inverse relaxation times. All samples were measured at 37° C. using either the internal temperature control of the instrument (0.47, 1.41, 9.4 and 11.7 T) or a warm air blower (4.7 T). MS-325/HSA was prepared in a 4.5% w/v solution of HSA (0.66 mM) in PBS. The MS-325 concentration (in presence of HSA) ranged from 0.05 to 0.15 mM.

[10] = 0.47 T, 310 K, literature (superscript refs)

t1/2 [h], Gd transchelation to MS-325 [1]: 0.42 ± 0.18 h | r1 1.41 T 310K [3]: 3.26 mM⁻¹ s⁻¹ | r1 ([3]; 1.41 T, 310 K, pH 7.4 50 mM HEPES buffer): 3.26 mM⁻¹ s⁻¹ | time to 80% of the initial 1/T1 ([4]; 1 equiv. Zn(II), pH 7.0 phosphate buffer, 310 K): 383 min
Compound: O=C([O-])CN(CCN(CC(=O)[O-])CC(=O)O)CCN(CC(=O)[O-])CC(=O)O.[Gd+3] [[Gd(DTPA)(H2O)]^2−, gadopentetate]
q [2]: 1^16 | r1 0.47 T 298K ([5]; 0.47 T, 298 K, literature (superscript refs)): 4.3^16 mM^−1s^−1 | r1 0.47 T 310K [5, 10]: 3.4^17 mM^−1s^−1

Kcomp [Gd(DTPA)(H2O)]^2- vs. L pH 4 [6]: 0.18 | affinity for Gd(III) lower than DTPA [7]: about 5 fold | Kcomp MS-325 vs. L pH 4 ([8]; pH 4): 0.031 | Kcomp MS-325 vs. L pH 7.4 ([8]; pH 7.4): 0.56 | Time to 80% r1 ([4]; Zn(II) challenge of the Gd(III) complex of L, this work): 95 min
Compound: N-((6-methylpicol-2-yl)methyl)-N,N′,N′-triacetate-trans-1,2-diaminocyclohexane [CyPic3A]

Compound: CC(O)CN1CCN(CC(=O)[O-])CCN(CC(=O)[O-])CCN(CC(=O)[O-])CC1.[Gd+3] (stereo not shown) [[Gd(HP-DO3A)(H2O)], gadoteridol, reference compound]
t1/2 [h], Gd transchelation to MS-325 [1]: 91 ± 6 h | q [2]: 1^16 | r1 0.47 T 310K [5, 10]: 3.1^17 mM^−1s^−1 | r1 1.41 T 310K ([5]; cell says 1.5 T, 310 K, literature (ref 17)): 2.9 (1.5 T)^17 mM^−1s^−1 | Relaxivity per Gd, 20 MHz ([9]; 20 MHz): 4.3 mM⁻¹ s⁻¹ | Relaxivity per Gd, 60 MHz ([9]; 60 MHz): 3.2 mM⁻¹ s⁻¹ | Relaxivity per Gd, 200 MHz ([9]; 200 MHz): 3.6 mM⁻¹ s⁻¹ | Relaxivity per Gd, 400 MHz ([9]; 400 MHz (9.4 T)): 3.0 mM⁻¹ s⁻¹ | Relaxivity per Gd, 500 MHz ([9]; 500 MHz): 2.9 mM⁻¹ s⁻¹ | r1 [0.47 T], per Gd ([9]; per Gd, 0.47 T): 4.33 mM⁻¹ s⁻¹ | r1 [1.4 T], per Gd ([9]; per Gd, 1.4 T): 3.21 mM⁻¹ s⁻¹ | r1 [9.4 T], per Gd ([9]; per Gd, 9.4 T): 3.03 mM⁻¹ s⁻¹ | r1 [11.7 T], per Gd ([9]; per Gd, 11.7 T): 2.94 mM⁻¹ s⁻¹
